Measured values: patent US20240269139A1, “COMPOUNDS FOR TARGETED PROTEIN DEGRADATION OF KINASES” (DANA-FARBER CANCER INSTITUTE, INC., priority 2020, published 2024)
Read-outs that look alike come from different tables or passages of the source.

Tested on: protein kinases (human kinome)
Type: cell-based
Conditions: for logFC PDK3: PDK3 (Q15120-2); for Kinase hits: kinases significantly downregulated vs DMSO (fold change cutoff −1.25, P-value<0.01), ≤8 h, 0.1-5 μM degrader, 7 cell lines; for Total no. kinase hits: number of degraded kinases per library compound

C=CCn1c(=O)c2cnc(Nc3ccc(N4CCN(CCCNc5cccc6c5C(=O)N(C5CCC(=O)NC5=O)C6=O)CC4)cc3)nc2n1-c1cccc(C(C)(C)O)n1 (stereo not drawn) [ZNL.02.096]
logFC (GK P32189-3, experiment wp056): −0.3867
logFC PDK3 (experiment wp056): −0.3528
logFC PDK3 (Q15120-2) (experiment wp056): −0.3528

CC(C)(C)c1nc(-c2cccc(NS(=O)(=O)c3c(F)cccc3F)c2F)c(-c2ccnc(NCCOCCNC(=O)CCOCCOCCNc3cccc4c3CN(C3CCC(=O)NC3=O)C4=O)n2)s1 (stereo not drawn) [DD.03.107]
logFC (ACAD10 (Q6JQN1-5), experiment wp147, 1 uM): −0.5536
logFC (ACAD10 (Q6JQN1-5), experiment wp147, 2 uM): −0.5234
logFC (ACAD10 (Q6JQN1-5), experiment wp147, 4 uM): −1.061
logFC (GK P32189-3, experiment wp147, 1 uM): −0.4979
logFC (GK P32189-3, experiment wp147, 2 uM): −0.4324
logFC (GK P32189-3, experiment wp147, 4 uM): −0.7592
logFC PDK3 (experiment wp147, 1 uM): −0.5119
logFC PDK3 (experiment wp147, 2 uM): −0.5406
logFC PDK3 (experiment wp147, 4 uM): −1.004
logFC PDK3 (Q15120-2) (experiment wp147, 1 uM): −0.5119
logFC PDK3 (Q15120-2) (experiment wp147, 2 uM): −0.5406
logFC PDK3 (Q15120-2) (experiment wp147, 4 uM): −1.004

O=C(COc1cccc2c1C(=O)N(C1CCC(=O)NC1=O)C2=O)NCCCCCCCC(=O)NC1(c2ccc(-c3nc4ccn5c(=O)[nH]nc5c4cc3-c3ccccc3)cc2)CCC1 (stereo not drawn) [INY.01.140.1]
logFC PDK3 (experiment wp081): −0.3755
logFC PDK3 (Q15120-2) (experiment wp081): −0.3755

Cc1ccc(C(=O)Nc2ccc(CN3CCN(CCCOCCOCCOCCNC(=O)COc4cccc5c4C(=O)N(C4CCC(=O)NC4=O)C5=O)CC3)c(C(F)(F)F)c2)cc1C#Cc1cnc2cccnn12 (stereo not drawn) [SB1-G-187, N-(4-((4-(1-((2-(2,6-dioxopiperidin-3-yl)-1,3-dioxoisoindolin-4-yl)oxy)-2-oxo-6,9,12-trioxa-3-azapentadecan-15-yl)piperazin-1-yl)methyl)-3 (trifluoromethyl)phenyl)-3-(imidazo[1,2-b]pyridazin-3-ylethynyl)-4-methylbenzamide]
kinases the bifunctional compound degrades (as stated for the structure in the embodiments): ABL1, ABL2, BLK, CDK14, CDK17, CDK5. CDK6, COQ8A, EPHA1, EPHA2, FER, FYN, GAK, IRAK1, LCK, LYN, MAP3K1, MAP3K20, MAP3K7, MAP4K2, MAP4K5, MAPK14, PDK1, PDK2, PDK3, RIPK1, RIPK2, SRC, STK10, TAOK3, and YES1
Kinase hits: ABL1, ABL2, BLK, CDK14, CDK17, CDK5, CDK6, COQ8A, EPHA1, EPHA2, FER, FYN, GAK, IRAK1, LCK, LYN, MAP3K1, MAP3K20, MAP3K7, MAP4K2, MAP4K5, MAPK14, PDK1, PDK2, PDK3, RIPK1, RIPK2, SRC, STK10, TAOK3, YES1,
Total no. kinase hits: 31

CC(C)S(=O)(=O)c1ccccc1Nc1nc(Nc2ccc(N3CCN(CCOCCNC(=O)CNc4cccc5c4C(=O)N(C4CCC(=O)NC4=O)C5=O)CC3)cc2)ncc1Cl (stereo not drawn) [SK-3-91]
targets with significantly different degrader efficacy in the different cell lines with no obvious difference in protein expression (MOLT-4, KELLY, HEK293T): SIK2, LIMK1, FAK
Kinase hits: AAK1, ABL1, ABL2, AKT2, AKT3, AURKA, AURKB, BCKDK, BLK, BMP2K, BMPR1A, BUB1, BUB1B, CDC7, CDK10, CDK12, CDK13, CDK14, CDK16, CDK17, CDK18, CDK2, CDK4, CDK5, CDK6, CDK7, CDK9, CO18A, CSK, CSNK1D, EPHB2, EPHB4, FER, FYN, GAK HIPK1, ITK, LATS1,
Total no. kinase hits: 89

Cc1cnc(Nc2ccc(N3CCN(CCOCCOCCNC(=O)COc4cccc5c4C(=O)N(C4CCC(=O)NC4=O)C5=O)CC3)cc2)nc1Nc1cccc(S(=O)(=O)NC(C)(C)C)c1 (stereo not drawn) [JWG.118]
logFC (GK P32189-3, experiment wp071): −0.4317
